Key:
Test in all cases: drug sensitivity score (DSS) (DSS (dimensionless)); higher = more sensitive (stronger drug response)
[1] = test system: FIMM-PDC5 (patient-derived ovarian cancer cells); conditions: genetic perturbation: none (patient-derived cell culture)
How it was run: (§1)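 Ovarian cancer cell lines with shRNA induced by 100 ng/ml doxycycline for at least three days, along with patient-derived cultures, were seeded at 1 000 – 1 500 cells per well onto drugs pre-plated in 384-well plates at five concentrations over a 10,000-fold range and incubated for three days at 37 °C and 5.0 % CO2. CellTiter-Glo luminescence measured on a PHERAstar FS served as the viability readout, and each drug's dose-response curve was summarised as a drug sensitivity score following an earlier published method.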

[2] = test system: OVSAHO
How it was run: as §1

[3] = test system: FIMM-PDC1 (patient-derived ovarian cancer cells); conditions: genetic perturbation: none (patient-derived cell culture)
How it was run: as §1

[4] = test system: Kuramochi
How it was run: as §1

[5] = test system: FIMM-PDC6 (patient-derived ovarian cancer cells); conditions: genetic perturbation: none (patient-derived cell culture)
How it was run: as §1

[6] = test system: FIMM-PDC4 (patient-derived ovarian cancer cells); conditions: genetic perturbation: none (patient-derived cell culture)
How it was run: as §1

[7] = test system: FIMM-PDC3 (patient-derived ovarian cancer cells); conditions: genetic perturbation: none (patient-derived cell culture)
How it was run: as §1

[8] = test system: JHOS2
How it was run: as §1

[9] = test system: FIMM-PDC7 (patient-derived ovarian cancer cells); conditions: genetic perturbation: none (patient-derived cell culture)
How it was run: as §1

[10] = genetic perturbation: DOX-induced PTK7 shRNA knockdown
[11] = genetic perturbation: DOX-induced control shRNA

Row | SMILES | drug sensitivity score [1] | drug sensitivity score [2, 10] | drug sensitivity score [2, 11] | drug sensitivity score [3] | drug sensitivity score [4, 10] | drug sensitivity score [4, 11] | drug sensitivity score [5] | drug sensitivity score [6] | drug sensitivity score [7] | drug sensitivity score [8, 10] | drug sensitivity score [8, 11] | drug sensitivity score [9]
1 | CC(=O)c1cnc2ccc(-c3cc(Cl)c(O)c(Cl)c3)nc2c1N[C@H]1CC[C@H](CN(C)C)CC1 [OTS167] | 14.7 | 8 | 10.6 | 11.3 | 10.1 | 5.8 | 13.9 | 12.3 | 12.4 | 15.7 | 18.8 | 14.6
2 | FC(F)c1nc2ccccc2n1-c1nc(N2CCOCC2)nc(N2CCOCC2)n1 [ZSTK474] | 17.4 | 13.5 | 14 | 8.5 | 13.8 | 7.5 | 11.8 | 13.9 | 10 | 6.6 | 8.1 | 15.7
3 | Nc1nc2[nH]cc(CCc3ccc(C(=O)N[C@@H](CCC(=O)O)C(=O)O)cc3)c2c(=O)[nH]1 [Pemetrexed] | < 0 | < 0 | 1.5 | 2.05 | 0.6 | 7.9 | 1.5 | < 0 | < 0 | 0.4 | < 0 | < 0
4 | CC[C@@H](C(=O)[C@@H](C)[C@@H](O)[C@H](C)[C@@H]1O[C@@H]([C@@H](CC)C(=O)O)CC[C@@H]1C)[C@H]1O[C@]2(C=C[C@@H](O)[C@]3(CC[C@@](C)([C@H]4CC[C@](O)(CC)[C@H](C)O4)O3)O2)[C@H](C)C[C@@H]1C [Salinomycin] | 18.4 | 29.2 | 4.8 | 11.6 | 19.4 | 21.6 | 8.1 | 16.8 | 18.8 | 24.2 | 15.5 | 14.7
5 | CCn1c(=O)c(-c2ccc(Cl)cc2Cl)cc2cnc(Nc3ccc(N4CCNCC4)c(F)c3)nc21 [FRAX486] | 14.7 | 10.8 | 4.8 | 4.5 | 3.7 | 7.6 | 9.7 | 9.3 | 6.5 | 4.5 | 8 | 6.5
6 | CC(C)C[C@H](NC(=O)[C@H](CCc1ccccc1)NC(=O)CN1CCOCC1)C(=O)N[C@@H](Cc1ccccc1)C(=O)N[C@@H](CC(C)C)C(=O)[C@@]1(C)CO1 [Carfilzomib] | 23.6 | 24.9 | 20.5 | 26.6 | 21.9 | 25 | 29.3 | 22.2 | 28.3 | 25.2 | 23.7 | 26.1
7 | Cc1c2oc3c(C)ccc(C(=O)N[C@@H]4C(=O)N[C@H](C(C)C)C(=O)N5CCC[C@H]5C(=O)N(C)CC(=O)N(C)[C@@H](C(C)C)C(=O)O[C@@H]4C)c3nc-2c(C(=O)N[C@@H]2C(=O)N[C@H](C(C)C)C(=O)N3CCC[C@H]3C(=O)N(C)CC(=O)N(C)[C@@H](C(C)C)C(=O)O[C@@H]2C)c(N)c1=O [Dactinomycin] | 25.2 | 23.1 | 18 | 23.6 | 23.3 | 19.9 | 22.1 | 23.1 | 26.5 | 21.1 | 23.4 | 26
8 | C=CC(=O)N1CCC[C@@H](n2nc(-c3ccc(Oc4ccccc4)cc3)c3c(N)ncnc32)C1 [Ibrutinib] | 10.1 | 2.9 | 2.6 | 0.35 | 2.2 | 1.1 | 6.4 | 7.7 | 5.6 | 0.6 | < 0 | 2.5
9 | CC/C(=C(\c1ccc(O)cc1)c1ccc(OCCN(C)C)cc1)c1ccccc1 [4-hydroxytamoxifen] | 6 | 4.9 | 3.2 | 3.6 | 5.1 | 2.4 | 3 | 6 | 6 | 8.4 | 2.3 | 4.6
10 | CC(=O)OC[C@H]1O[C@@H]([S-])[C@H](OC(C)=O)[C@@H](OC(C)=O)[C@@H]1OC(C)=O.CCP(CC)CC.[Au+] [Auranofin] | 1.1 | 11 | 5.6 | 1.9 | 6.75 | 7.5 | 4 | 1.2 | 5.5 | 2.5 | 0.7 | 2.2
11 | CO[C@H](C(=O)[C@@H](O)[C@@H](C)O)[C@@H]1Cc2cc3cc(O[C@H]4C[C@@H](O[C@@H]5C[C@@H](O)[C@H](O)[C@@H](C)O5)[C@H](O)[C@@H](C)O4)c(C)c(O)c3c(O)c2C(=O)[C@H]1O[C@H]1C[C@@H](O[C@@H]2C[C@@H](O)[C@@H](O[C@@H]3C[C@](C)(O)[C@H](O)[C@@H](C)O3)[C@@H](C)O2)[C@H](O)[C@@H](C)O1 [Plicamycin] | 15.3 | 3.5 | 14.6 | 15.6 | 3.45 | 12.6 | < 0 | 12.6 | 4.3 | 3.7 | 20.1 | < 0
12 | O=C(Nc1ccc2[nH]nc(-c3ccncc3)c2c1)[C@@H]1CCN(CC(=O)N2CCN(c3ccc(-c4ncccn4)cc3)CC2)C1 | 22 | 13.4 | 8.5 | 0.35 | 12.6 | 8 | 16.7 | 18.4 | 7.4 | 4.1 | 12.8 | 10.2
13 | Cc1sc2c(c1C)C(c1ccc(Cl)cc1)=N[C@@H](CC(=O)Nc1ccc(OCCOCCOCCOCCNc3cccc4c3C(=O)N(C3CCC(=O)NC3=O)C4=O)cc1)c1nnc(C)n1-2 (some centres undefined) [ARV-825] | 8.9 | 9.7 | 9.1 | 0.6 | 8.3 | 10.5 | 6.7 | 8.2 | 3.2 | 10.2 | 8.1 | 8.7
14 | CON(C)C(=O)N1N=C(c2cc(F)ccc2F)S[C@@]1(CCCN)c1ccccc1 [Filanesib] | 17.4 | 7.8 | 6.8 | 6.65 | 10.3 | 1.1 | 6.6 | 12.3 | 10.7 | 9.2 | 3 | 2.9
15 | CCOC(=O)CCNc1cc(N2CCc3ccccc3CC2)nc(-c2ccccn2)n1 [GSK-J4] | < 0 | < 0 | 11.7 | 0.2 | 5.3 | 7.4 | < 0 | < 0 | < 0 | 0.7 | 2.2 | 0.3
16 | COc1cccc2c1C(=O)c1c(O)c3c(c(O)c1C2=O)C[C@@](O)(C(C)=O)C[C@@H]3O[C@H]1C[C@H](N)[C@H](O)[C@H](C)O1 [Daunorubicin] | 10.7 | 8.3 | 4.4 | 4.65 | 4.2 | 4.6 | 7.4 | 8.4 | 7.8 | 4 | 5.6 | 9
17 | CC(C)c1cc(-c2n[nH]c(=O)n2-c2ccc3c(ccn3C)c2)c(O)cc1O [Ganetespib] | 14.3 | < 0 | 10.8 | 13.4 | 11.1 | 1.9 | 13.6 | 19.5 | 12.9 | 13.7 | 12.5 | 14
18 | Cc1nc(=O)c2cc(CN(C)c3ccc(C(=O)N[C@@H](CCC(=O)O)C(=O)O)s3)ccc2[nH]1 [Raltitrexed] | < 0 | < 0 | 5.1 | 2.7 | 0.45 | 9.4 | 1.2 | < 0 | < 0 | 0.1 | < 0 | 3
19 | CO[C@@H]1[C@H](N(C)C(=O)c2ccccc2)C[C@H]2O[C@]1(C)n1c3ccccc3c3c4c(c5c6ccccc6n2c5c31)C(=O)NC4 [Midostaurin] | 17.8 | 13.1 | 7.9 | 8.1 | 9 | 8.9 | 7.8 | 15.7 | 5.5 | 13.1 | 10.7 | 10.3
20 | CC(C)[C@H]1C(=O)N[C@@H](CCCNC(=N)N)C(=O)NCC(=O)N[C@@H](CC(=O)O)C(=O)N[C@H](Cc2ccccc2)C(=O)N1C [Cilengitide] | < 0 | 9.6 | 6.1 | 0.75 | 8.65 | 3 | < 0 | < 0 | < 0 | 5 | 0.9 | 1.3
21 | CC(=O)O[C@@]12CO[C@@H]1C[C@H](O)[C@@]1(C)C(=O)[C@H](O)C3=C(C)[C@@H](OC(=O)[C@H](O)[C@@H](NC(=O)OC(C)(C)C)c4ccccc4)C[C@@](O)([C@@H](OC(=O)c4ccccc4)[C@H]21)C3(C)C [Docetaxel] | 21.5 | 7.6 | 13.5 | 15.6 | 18 | 4.4 | 7.4 | 18.8 | 21.6 | 20.3 | 12.7 | 7.2
22 | CC(=O)O[C@H]1C(=O)[C@@]2(C)[C@H]([C@H](OC(=O)c3ccccc3)[C@]3(O)C[C@H](OC(=O)[C@H](O)[C@@H](NC(=O)c4ccccc4)c4ccccc4)C(C)=C1C3(C)C)[C@]1(OC(C)=O)CO[C@@H]1C[C@@H]2O [Paclitaxel] | 20.8 | 11.1 | 15.6 | 15.9 | 18.1 | 3.1 | 10.5 | 18.7 | 18.4 | 17.3 | 11.7 | 7

Source: the supplement of paper PMC9386025
